Measurements taken from patent publication US20140260103A1, “Methods of Making Solid Stick Antiperspirant Compositions” (The Procter & Gamble Company, priority 2013, published 2014).

Test: Hygroscopicity: moisture pick up of antiperspirant active in controlled relative humidity
Type: physicochemical
Conditions: at 86% RH, 5 days, 20° C.
Description: One way to evaluate the hygroscopic nature of an antiperspirant active is to determine the equilibrium moisture pick up of the active after 5 days in a controlled relative humidity environment. Specific humidity chambers can be created placing saturated salt solutions in desiccators at a specific temperature. Different salts are used to create different humidities, for example potassium chloride can be used to make an 86% relative humidity (RH) environment at 20° C. In general there is an increase in moisture pick up as humidity is increased for the antiperspirant actives shown, however there are clear differences in slope and amount of moisture pick up at high humidity. Materials with higher slope and larger increases at high humidity (i.e. 86% RH) are considered to be more hygroscopic. The aluminum zirconium trichlorohydrate active (metal to chloride ratio=1.6) from Inventive Example 1 is the least hygroscopic (28% moisture pick up at 86% RH) with the aluminum zirconium tetrachlorohydrate active (metal to chloride ratio=1.2) being substantially more hygroscopic (40% moisture pick up at 86% RH). […] This may explain the substantial difference observed in the amount of sweat measured between Inventive Examples 1 and 2. […]

| Substance | moisture pick up (hygroscopicity) [%] |
| --- | --- |
| aluminum zirconium tetrachlorohydrate | 40 |
| aluminum zirconium trichlorohydrate | 28 |
